Test results taken from patent US20060014728A1, “Hormone replacement therapy” (priority 1996, published 2006).
Values joined by “and” are separate entries in the source; they are usually repeats but may differ in a detail not shown here. Identical values can stand only once.

Columns and labels:
endometrium = assay: Antiproliferative action of antiprogestins on the endometrium in estrogen-replaced, ovariectomized cynomolgus monkeys (Example 2); format: in vivo; conditions: biopsy day 30; 1 or 3 mg/kg im daily days 1-30; estradiol capsule sc
endometrial tissues = assay: Histologic evaluation of primate endometrial tissues on days 53 and 70 (Example 1); format: in vivo, cynomolgus monkeys; conditions: for Endometrial Score: score 0-atrophic to 5-secretory; for Thickness (mm): mean ± SD; for thicknesses of endometrial tissues: day 70, Groups III-VI (2.0 and 20.0 mg/kg together)
From the text: Additional data were collected by measurements of estradiol, progesterone and cortisol, as well as each antiprogestin in serum drawn on alternate days (1 to 81). Also, endometrial response was examined histologically in biopsy specimens collected on days 53 and 70, both to measure thickness of endometrial tissue (i.e., anti-proliferative response) and to assess the endometrial tissue qualitatively (atrophic, proliferative, or secretory, etc.).
(§1) The monkeys were randomly distributed into six treatment group preparations (n=5 each). Group I (control) was treated with the vehicle only. One empty silastic implant was placed sc surgically from study day 1 to 81; this controlled for estradiol treatment. Another empty silastic implant was inserted sc from days 28 to 35 and from days 67 to 74 and controlled for progesterone treatment. One ml of the antiprogestin vehicle was administered im on alternate days (39 to 67). Group II received continuous estradiol progesterone at two intervals but no antiprogestins. This experimental design allowed two menstrual challenges (A and B). As described below (Groups III-VI), menstrual challenge A was without antiprogestin exposure; whereas B was with antiprogestin treatment. Group III monkeys received the sequential estradiol and progesterone regimens as in Group II but also RU 486 at 2.0 mg/kg on alternate days for four weeks (days 39 to 67). For Group IV, the same treatment occurred, except that the RU 486 dose was elevated by ten-fold (20.0 mg/kg). Similarly, primates in Groups V and VI were injected with onapristone at 2.0 and 20.0 mg/kg, respectively.
(§2) In all treatment groups, observations for menstrual bleeding were made daily by visual inspection of the vaginal labia. Femoral blood collections (4.0 ml) were taken under ketamine-induced anesthesia (10 mg/kg) on alternate days and endometrial biopsies (by hysterotomy) were obtained on days 53 and 70. Endometrial biopsies were placed in formalin […] and processed for histologic evaluation by a clinical pathologist. Thickness of the endometrial tissues was measured with an ocular micrometer to determine the depth of the endometrium at its point of maximal thickness from the myometrial unction to the epithelial layer at the lumenal surface. Endometrial status was evaluated qualitatively and classified according to the following score: atrophic:O; early proliferative: 1; late proliferative:2; interval:3; early secretory:4; and late secretory:5.

[1] = tested on: ovariectomized cynomolgus monkeys; assay: Withdrawal menses after sequential estradiol and progesterone therapy without versus with antiprogestin treatment (menstrual challenges A and B); format: in vivo
From the text: 30 ovariecomized cynomolgus monkeys were studied intensively over 12 weeks. Primates in Group I (N=5 each) received only the vehicles used for hormone delivery in Groups II-VI. Monkeys in Group II received estradiol at physiologic levels throughout (days 1 to 81) via a sc silastic implant, as well as two separate courses of progesterone at physiologic levels via a sc silastic implant (days 28 to 35 and 67 to 74). Groups III-VI received the same sequential regimen of estradiol and progesterone as Group II, but in addition were given an antiprogestin im on alternate days 39 to 67: Group III, mifepristone (RU 486) 2.0 mg/kg; Group IV, mifepristone 20.0 mg/kg; Group V, onapristone (ZK 299) 2.0 mg/kg; and Group VI, onapristone 20.0 mg/kg. The two menstrual challenge tests (A and B) were defined as the six days immediately after withdrawal of progesterone treatment (A on days 36 to 41 and B on days 75 to 80).
The protocol thus provided two periods of estrogen-only HRT treatment, one without antiprogestin followed by another with antiprogestin. Each of these two periods was followed by short-term progesterone treatment which provided a measurement of the effects on bleeding of the antiprogestin during the estrogen HRT treatment.
as §1, §2

[2] = Day 53, antiprogestin 2.0 mg/kg
[3] = Day 53, antiprogestin 20.0 mg/kg
[4] = Day 53, estradiol + progesterone + antiprogestin 2.0 mg/kg im alternate days 39-67
[5] = Day 53, estradiol + progesterone + antiprogestin 20.0 mg/kg im alternate days 39-67
[6] = Day 70, antiprogestin 2.0 mg/kg
[7] = Day 70, antiprogestin 20.0 mg/kg
[8] = Day 70, estradiol + progesterone + antiprogestin 2.0 mg/kg im alternate days 39-67
[9] = Day 70, estradiol + progesterone + antiprogestin 20.0 mg/kg im alternate days 39-67
[10] = 20.0 mg/kg im on alternate days 39-67, with estradiol + progesterone
[11] = Menstrual Challenge A, withdrawal interval days 36-41, antiprogestins: none (baseline before antiprogestin), groups later given 2 mg/kg
[12] = Menstrual Challenge A, withdrawal interval days 36-41, antiprogestins: none (baseline before antiprogestin), groups later given 20 mg/kg
[13] = Menstrual Challenge B, withdrawal interval days 75-80, estradiol + progesterone + antiprogestin 2 mg/kg im on alternate days 39-67
[14] = Menstrual Challenge B, withdrawal interval days 75-80, estradiol + progesterone + antiprogestin 20 mg/kg im on alternate days 39-67

Structure (SMILES) | classification of endometrial specimens (developmental stage) (endometrium) | Endometrial Score (endometrial tissues; [2]) | Endometrial Score (endometrial tissues; [3]) | Thickness (mm) (endometrial tissues; [4]) | Thickness (mm) (endometrial tissues; [5]) | Endometrial Score (endometrial tissues; [6]) | Endometrial Score (endometrial tissues; [7]) | Thickness (mm) (endometrial tissues; [8]) | Thickness (mm) (endometrial tissues; [9]) | thicknesses of endometrial tissues (endometrial tissues) | bleeding outcome during menstrual challenge B ([1]; 2.0 mg/kg im on alternate days 39-67, with estradiol + progesterone) | bleeding outcome during menstrual challenge B [1, 10] | Incidence of Bleeding, Days [1, 11] | Incidence of Bleeding, Days [1, 12] | Incidence of Bleeding, Days [1, 13] | Incidence of Bleeding, Days [1, 14] | histological evaluation of endometrium (endometrial tissues; Group V, 2.0 mg/kg) | Incidence of Bleeding, Days ([1]; Menstrual Challenge B, withdrawal interval days 75-80, estradiol + progesterone + antiprogestin 2 mg/kg im on alternate days 39-67, listed as ONA)
C[C@]12C[C@@H]3c4ccc(-c5ccc(C#N)cc5)cc4C[C@]45CCC(=O)C=C4CC[C@@H]([C@H]35)[C@@H]1CC[C@@]2(O)/C=C/CO [ZK136798] | interval |  |  |  |  |  |  |  |  |  |  |  |  |  |  |  |  | 
CC#C[C@]1(O)CC[C@H]2[C@@H]3CCC4=CC(=O)CCC4=C3[C@@H](c3ccc(N(C)C)cc3)C[C@@]21C [mifepristone, 11β-(4-dimethylaminophenyl)-17β-hydroxy-1-propinyl-4,9estradien-3-one] | proliferative | 3.6 | 3.8 | 2.5 ± 0.2 mm | 2.2 ± 0.2 mm | 2.4 | 2.8 | 1.8 ± 0.2 mm | 1.3 ± 0.1 mm | approximately 1.5 mm | complete amenorrhea | complete amenorrhea | 13/30 | 12/30 | 0/30 | 0/30 |  | 
CN(C)c1ccc([C@H]2C[C@]3(C)[C@@H](CC[C@]3(O)CCCO)[C@@H]3CCC4=CC(=O)CCC4=C32)cc1 [onapristone, 1β-(4-dimethylaminophenyl)-17-hydroxy-17β-(3-hydroxypropyl)-13-methyl-4,9-gonadien-3-one] | interval | 3.8 | 3.6 | 2.6 ± 0.2 mm | 2.2 ± 0.1 mm | 4.0 | 3.0 | 1.6 mm and 1.6 ± 0.1 mm | 1.7 ± 0.1 mm | approximately 1.5 mm |  | complete amenorrhea | 9/30 | 9/30 | three | 0/30 | well-developed secretory glands | 3/30
